Results: US20110171171A1, “BRIDGED SECONDARY AMINES AND USE THEREOF AS IAP BIR DOMAIN BINDING COMPOUNDS” (Aegera Therapeutics, Inc., priority 2008, published 2011)
pEC50: −log10 of the molar value.

Key:
Format in all cases: cell-based
[1] = tested on: Ovarian adenocarcinoma SKOV3 cells; assay: SKOV3 cell death assay (MTT, 72 hours); details: Homo sapiens, SK-OV-3, compound alone
Method: Ovarian adenocarcinoma SKOV3 cells were cultured as monolayers in McCoy's 5a medium (HyClone) supplemented with 2.2 g/L sodium bicarbonate (Gibco), 10% FBS (HyClone) and 1% penicillin/streptomycin (HyClone). Cells were seeded in 96 well plates at 5000 cells/well. After 24 hours in culture, cells were treated with compound. Cells were incubated in the presence of compound for 72 hours. Metabolic viability of remaining cells was assessed by MTT (thiazolyl blue tetrazolium bromide, Sigma) assay.
(§1) EC50 values (50% cell survival in the presence of compound as compared to untreated controls) were calculated from survival curves using BioAssay software (CambridgeSoft, HCT116 and SKOV3 SAR) and GraphPad Prism (Graph Pad Software Inc., Synoviocyte SAR).

[2] = tested on: Colorectal carcinoma HCT116 cells; assay: HCT116 + ETR1 cell death assay (MTT, 72 hours); details: with HGS ETR1 40 ng/ml
Method: Colorectal carcinoma HCT116 cells were cultured as monolayers in 96 well plates at a density of 2000 cells per well in McCoy's 5a medium (HyClone) supplemented with 2.2 g/L sodium bicarbonate (Gibco), 10% FBS (HyClone) and 1% penecillin/streptomycin (HyClone). 24 hours later, triplicate wells were treated with HGS ETR1 (40 ng/ml) in combination with compound. Cells were incubated in the presence of compound and HGS agonistic Trail receptor antibody, ETR1 (Mapatumamab, 40 ng/ml) for 72 hours. Metabolic viability of remaining cells was assessed by MTT (thiazolyl blue tetrazolium bromide, Sigma) assay.
as §1

[3] = tested on: Rheumatoid arthritis human fibroblast-like synoviocytes (HFLS-RA); assay: Synoviocytes + Fas antibody cell survival assay (Cell Titer-Glo); details: with 300 ng/ml anti-human CD95 (Fas) antibody CH-11, 72 hours, read-out: EC50 synoviocyctes + FAS
Method: Rheumatoid arthritis human fibroblast-like synoviocytes (HFLS-RA, Cell Applications Inc.) were seeded in 96-well plates at 3000 cells per well in complete synoviocyte growth medium (Cell Applications Inc.) one day prior to treatment. Triplicate wells were treated for 72 hours compound in combination with 300 ng/ml anti-human CD95 (Fas) antibody (clone CH-11, Beckman Coulter/Immunotech). Cell survival was measured by Cell Titer-Glo Luminescent Assay (Promega).
as §1

SMILES | pEC50 [1] | pEC50 [2] | pEC50 [3]
CN[C@@H](C)C(=O)N[C@H](C(=O)N1CCC[C@H]1CN(CCc1ccccc1)C(=O)CNC(=O)c1ccc(-c2ccc(C(=O)NCC(=O)N(CCc3ccccc3)C[C@@H]3CCCN3C(=O)[C@@H](NC(=O)[C@H](C)NC)C3CCCCC3)cc2)cc1)C1CCCCC1 [Compound 2] | > 7.00 | > 7.00 | > 7.00
CN[C@@H](C)C(=O)N[C@H](C(=O)N1CCC[C@H]1CN(CCc1ccc(F)cc1)C(=O)c1ccc(-c2ccc(C(=O)N(CCc3ccc(F)cc3)C[C@@H]3CCCN3C(=O)[C@@H](NC(=O)[C@H](C)NC)C3CCCCC3)cc2)cc1)C1CCCCC1 [Compound 6] | > 7.00 | > 7.00 | > 7.00
CN[C@@H](C)C(=O)N[C@H](C(=O)N1CCC[C@H]1CN(CCc1ccc(F)cc1)C(=O)CNC(=O)c1ccc(-c2ccc(C(=O)NCC(=O)N(CCc3ccc(F)cc3)C[C@@H]3CCCN3C(=O)[C@@H](NC(=O)[C@H](C)NC)C3CCCCC3)cc2)cc1)C1CCCCC1 [Compound 8] | > 7.00 | > 7.00 | > 7.00
CN[C@@H](C)C(=O)N[C@H](C(=O)N1CCC[C@H]1CN(CCc1ccccc1)C(=O)CNC(=O)c1ccc(-c2ccc(C(=O)NCC(=O)N(CCc3ccccc3)C[C@@H]3CCCN3C(=O)[C@@H](NC(=O)[C@H](C)NC)C3CCCC3)cc2)cc1)C1CCCC1 [Compound 17] | > 7.00 | > 7.00 | > 7.00
CN[C@@H](C)C(=O)N[C@H](C(=O)N1CCC[C@H]1CN(CCc1ccccc1)C(=O)c1ccc(-c2ccc(C(=O)N(CCc3ccccc3)C[C@@H]3CCCN3C(=O)[C@@H](NC(=O)[C@H](C)NC)C3CCCCC3)cc2)cc1)C1CCCCC1 [Compound 18] | – | > 7.00 | > 7.00
CN[C@@H](C)C(=O)N[C@H](C(=O)N1CCC[C@H]1CN(CCc1ccccc1)C(=O)c1ccc2cc(C(=O)N(CCc3ccccc3)C[C@@H]3CCCN3C(=O)[C@@H](NC(=O)[C@H](C)NC)C3CCC3)ccc2c1)C1CCC1 [Compound 19] | – | > 7.00 | > 7.00
CN[C@@H](C)C(=O)N[C@H](C(=O)N1CCC[C@H]1CN(CCc1ccccc1)C(=O)c1ccc2cc(C(=O)N(CCc3ccccc3)C[C@@H]3CCCN3C(=O)[C@@H](NC(=O)[C@H](C)NC)C3CC3)ccc2c1)C1CC1 [Compound 20] | – | > 7.00 | < 7.00
CN[C@@H](C)C(=O)N[C@H](C(=O)N1CCC[C@H]1CN(CCc1ccccc1)C(=O)c1ccc(-c2ccc(C(=O)N(CCc3ccccc3)C[C@@H]3CCCN3C(=O)[C@@H](NC(=O)[C@H](C)NC)C3CCC3)cc2)cc1)C1CCC1 [Compound 21] | – | > 7.00 | > 7.00
CN[C@@H](C)C(=O)N[C@H](C(=O)N1CCC[C@H]1CN(CCc1ccccc1)C(=O)c1ccc(-c2ccc(C(=O)N(CCc3ccccc3)C[C@@H]3CCCN3C(=O)[C@@H](NC(=O)[C@H](C)NC)C3CC3)cc2)cc1)C1CC1 [Compound 22] | – | > 7.00 | > 7.00
CN[C@@H](C)C(=O)N[C@H](C(=O)N1CCC[C@H]1CN(CCc1ccccc1)C(=O)c1ccc(-c2ccc(C(=O)N(CCc3ccccc3)C[C@@H]3CCCN3C(=O)[C@@H](NC(=O)[C@H](C)NC)C3CCCC3)cc2)cc1)C1CCCC1 [Compound 23] | – | > 7.00 | > 7.00
